Experimental data from DBAASP.
In brackets after ≈: the same amount, converted by molar mass. Each block holds one compound with its values, some of them ahead of it.

Legend:
Experiment in all cases: ≥ marks a high value that may be exact or a test limit, other limits are often not marked, values filed in µg/mL are converted to µM
Aeromonas salmonicida = system: Aeromonas salmonicida
[1] = system: Salmonella enterica serovar typhimurium MS7953s
[2] = system: Salmonella enterica subsp. enterica serovar Typhimurium ATCC 14028s
[3] = system: Pseudomonas aeruginosa Z61
[4] = system: Staphylococcus epidermidis C621
Vibrio anguillarum = system: Vibrio anguillarum
[5] = system: Pseudomonas aeruginosa K799
[6] = system: Pseudomonas aeruginosa PA14
[7] = system: Staphylococcus aureus ATCC 29231
[8] = system: Klebsiella pneumoniae WGLW2
[9] = system: Candida albicans ATCC 10231
Pachysolen tannophilus = system: Pachysolen tannophilus
Candida albicans = system: Candida albicans
Trichoderma harzianum = system: Trichoderma harzianum
Kluyveromyces marxianus = system: Kluyveromyces marxianus
Aspergillus niger = system: Aspergillus niger
Fusarium oxysporum = system: Fusarium oxysporum
[10] = system: Mannheimia haemolytica 82-25
[11] = system: Staphylococcus aureus NCTC 12981
[12] = system: Escherichia coli NCTC 10418
[13] = system: Klebsiella aerogenes LMG 02094
[14] = system: Klebsiella pneumoniae LMG 20218
[15] = system: Escherichia coli LMG 15862
[16] = system: Acinetobacter baumannii LMG 01041
[17] = system: Pseudomonas aeruginosa LMG 6395
Escherichia coli TOP 10 = system: Escherichia coli TOP 10
Pseudomonas aeruginosa = system: Pseudomonas aeruginosa
[18] = system: Escherichia coli ATCC BAA-2340
[19] = system: Staphylococcus aureus ATCC 6538
[20] = system: Klebsiella pneumoniae ATCC 43816
[21] = system: Candida albicans NCYC 1467
[22] = system: Klebsiella pneumoniae ATCC BAA-1705
[23] = system: Klebsiella pneumoniae ATCC BAA-2342
[24] = system: Enterococcus faecalis NCTC 12697
[25] = system: Staphylococcus aureus ATCC 12493
[26] = system: Staphylococcus aureus NCTC 10788
[27] = system: Escherichia coli ATCC 8739
Staphylococcus aureus = system: Staphylococcus aureus
[28] = system: Pseudomonas aeruginosa ATCC 27853
[29] = system: Pseudomonas aeruginosa ATCC 9027

SMILES: CC[C@H](C)[C@H](NC(=O)[C@H](CCCCN)NC(=O)[C@H](CCCCN)NC(=O)[C@@H](N)CC(C)C)C(=O)NCC(=O)N[C@@H](CCCCN)C(=O)N[C@@H](CCCCN)C(=O)N[C@H](C(=O)N[C@@H](Cc1c[nH]c2ccccc12)C(=O)N[C@@H](CCCN=C(N)N)C(=O)N[C@H](C(=O)NCC(=O)N[C@@H](Cc1c[nH]c2ccccc12)C(=O)N[C@@H](CC(N)=O)C(=O)N[C@H](C(=O)N[C@@H](CCCN=C(N)N)C(=O)N[C@@H](CC(=O)O)C(=O)N[C@@H](C)C(=O)N[C@H](C(=O)N[C@H](C(=O)N[C@@H](CCC(N)=O)C(=O)O)[C@@H](C)CC)[C@@H](C)O)[C@@H](C)O)C(C)C)[C@@H](C)CC [LKKIGKKIWRVGWNTRDATIQ]
MIC [6]: ≥ 51 µM
MIC [7]: ≥ 51 µM
MIC [8]: ≥ 51 µM
MIC [9]: > 51 µM

SMILES: CC[C@H](C)[C@H](NC(=O)[C@H](CC(C)C)NC(=O)[C@@H](NC(=O)[C@@H](N)CC(=O)O)[C@@H](C)O)C(=O)NCC(=O)N[C@@H](CO)C(=O)N[C@H]1CSSC[C@@H]2NC(=O)[C@H](Cc3cnc[nH]3)NC(=O)CNC(=O)CNC(=O)[C@H](CCCCN)NC(=O)[C@H](Cc3ccc(O)cc3)NC(=O)CNC(=O)[C@H](CCCN=C(N)N)NC(=O)[C@H](CCCN=C(N)N)NC(=O)[C@H](CCCCN)NC(=O)[C@@H]3CSSC[C@@H](C(=O)N[C@@H](CCC(=O)O)C(=O)O)NC(=O)[C@H](Cc4c[nH]c5ccccc45)NC(=O)[C@H](CSSC[C@H](NC(=O)[C@H](CC(=O)O)NC(=O)[C@H](CO)NC(=O)[C@H]([C@@H](C)O)NC(=O)[C@H](Cc4ccc(O)cc4)NC(=O)[C@H](CC(N)=O)NC(=O)[C@H]([C@@H](C)O)NC(=O)[C@H](C)NC(=O)CNC(=O)[C@H](Cc4c[nH]c5ccccc45)NC(=O)[C@H](C(C)C)NC1=O)C(=O)N[C@@H](CC(N)=O)C(=O)N[C@@H](C)C(=O)N[C@@H](CCC(=O)O)C(=O)N3)NC(=O)[C@H](CC(N)=O)NC(=O)[C@H](C(C)C)NC(=O)[C@H](CC(N)=O)NC(=O)[C@H](CC(C)C)NC(=O)[C@H](Cc1ccccc1)NC(=O)[C@H](CO)NC(=O)CNC2=O [DTLIGSCVWGATNYTSDCNAECKRRGYKGGHCGSFLNVNCWCE]
MIC (Pachysolen tannophilus): 8.5 µM (≈ 40.1 µg/mL)
MIC (Candida albicans): 8.5 µM (≈ 40.1 µg/mL)
MIC (Trichoderma harzianum): 4.2 µM (≈ 19.8 µg/mL)
MIC (Kluyveromyces marxianus): 8.5 µM (≈ 40.1 µg/mL)
MIC (Aspergillus niger): 2.1 µM (≈ 9.9 µg/mL)
MIC (Fusarium oxysporum): 16.9 µM (≈ 79.7 µg/mL)

SMILES: NCCCC[C@H](NC(=O)[C@H](CC(=O)O)NC(=O)[C@H](CC(=O)O)NC(=O)[C@H](CC(=O)O)NC(=O)CN)C(=O)O [GDDDK]
MIC [10]: ≥ 200 µM

The next lines start with the values.

MIC (Aeromonas salmonicida): 0.326 µM (≈ 1 µg/mL)
MIC [1]: 0.163 µM (≈ 0.5 µg/mL)
MIC [2]: 5.22 µM (≈ 16 µg/mL)
MIC [3]: 5.22 µM (≈ 16 µg/mL)
MIC [4]: 5.22 µM (≈ 16 µg/mL)
MIC (Vibrio anguillarum): 10.4 µM (≈ 32 µg/mL)
MIC [5]: 5.22 µM (≈ 16 µg/mL)
SMILES: CC(C)C[C@H](NC(=O)[C@H](C)NC(=O)[C@H](C)NC(=O)[C@H](CCCCN)NC(=O)CNC(=O)[C@@H](NC(=O)[C@H](Cc1cnc[nH]1)NC(=O)[C@H](CCCCN)NC(=O)CNC(=O)[C@@H](NC(=O)[C@H](Cc1cnc[nH]1)NC(=O)[C@H](C)NC(=O)[C@H](C)NC(=O)[C@H](CCCCN)NC(=O)[C@H](CCCCN)NC(=O)[C@H](Cc1ccccc1)NC(=O)[C@H](Cc1ccccc1)NC(=O)[C@H](CO)NC(=O)CNC(=O)[C@H](Cc1c[nH]c2ccccc12)NC(=O)CN)C(C)C)C(C)C)C(=O)NCC(=O)N[C@@H](C)C(=O)N[C@@H](C)C(=O)N[C@@H](C)C(=O)N[C@@H](CCCN=C(N)N)C(=O)N[C@@H](CCCN=C(N)N)C(=O)N[C@@H](CCCN=C(N)N)C(=O)N[C@@H](CCCCN)C(=O)O [GWGSFFKKAAHVGKHVGKAALGAAARRRK]

MIC [11]: ≥ 158 µM
MIC [12]: ≥ 158 µM
SMILES: NC(=O)[C@H](CCCN=C(N)N)NC(=O)[C@@H]1CCCN1C(=O)[C@@H]1CCCN1C(=O)[C@H](Cc1c[nH]c2ccccc12)NC(=O)[C@@H]1CCCN1C(=O)[C@@H](N)CCCN=C(N)N [RPWPPR]

MIC [13]: ≥ 256 µM
MIC [14]: ≥ 32 µM
MIC [15]: 16 µM (≈ 23.5 µg/mL)
MIC [16]: ≥ 128 µM
MIC [17]: 16 µM (≈ 23.5 µg/mL)
SMILES: CC[C@H](C)[C@H](NC(=O)[C@H](CCCN=C(N)N)NC(=O)[C@H](CCC(N)=O)NC(=O)[C@@H](NC(=O)[C@@H](NC(=O)[C@@H](N)CCCCN)[C@@H](C)CC)C(C)C)C(=O)N[C@@H](CCCCN)C(=O)N[C@@H](CCCCN)C(=O)N[C@@H](Cc1c[nH]c2ccccc12)C(=O)N[C@@H](CC(C)C)C(=O)N[C@@H](CCCN=C(N)N)C(N)=O [KIVQRIKKWLR]

MIC (Escherichia coli TOP 10): ≥ 71.1 µM
SMILES: CC[C@H](C)[C@H](NC(=O)[C@@H](N)CCC(=O)O)C(=O)N[C@@H](CCC(=O)O)C(=O)N[C@@H](Cc1ccc(O)cc1)C(=O)NCC(=O)N[C@@H](CC(N)=O)C(=O)N1CCC[C@H]1C(=O)NCC(=O)N[C@H](C(=O)NCC(=O)N[C@H](C(=O)N[C@@H](CC(=O)O)C(=O)N[C@@H](CCCN=C(N)N)C(N)=O)[C@@H](C)O)C(C)C [EIEYGNPGVGTDR]

MIC (Pseudomonas aeruginosa): > 512 µM
MIC [18]: ≥ 64 µM
MIC [19]: 2 µM (≈ 3.87 µg/mL)
MIC [20]: ≥ 64 µM
MIC [21]: 8 µM (≈ 15.5 µg/mL)
MIC [22]: ≥ 256 µM
MIC [23]: ≥ 128 µM
MIC [24]: ≥ 32 µM
MIC [25]: 4 µM (≈ 7.75 µg/mL)
MIC [26]: 4 µM (≈ 7.75 µg/mL)
MIC [27]: ≥ 128 µM
MIC (Staphylococcus aureus): 8 µM (≈ 15.5 µg/mL)
MIC [28]: 128 µM (≈ 248 µg/mL)
MIC [29]: 256 µM (≈ 496 µg/mL)
MIC [12]: ≥ 32 µM
SMILES: CC[C@H](C)[C@H](NC(=O)CNC(=O)CNC(=O)[C@H](C)NC(=O)[C@@H](NC(=O)[C@H](CCCCN)NC(=O)[C@@H]1CCCN1C(=O)[C@@H](NC(=O)[C@H](CC(C)C)NC(=O)[C@H](CO)NC(=O)[C@H](CC(C)C)NC(=O)[C@@H](N)Cc1ccccc1)[C@@H](C)CC)[C@@H](C)CC)C(=O)N[C@@H](C)C(=O)N[C@@H](C)C(=O)N[C@@H](CC(C)C)C(=O)N[C@H](C(=O)N[C@@H](CCCCN)C(=O)N[C@@H](CC(N)=O)C(=O)N[C@@H](CC(C)C)C(N)=O)C(C)C [FLSLIPKIAGGIAALVKNL]
